Data reported in patent US20100286181A1, “PYRROLE DERIVATIVES WITH ANTIBACTERIAL ACTIVITY” (ASTRAZENECA AB, priority 2006, published 2010).
In brackets after ≈: the same amount, converted by molar mass.

Assays:
SPN548 = assay: Bacterial susceptibility testing in liquid media (MIC), SPN548; assay type: cell-based; conditions: strain SPN548
Excerpt: (§1) Compounds may be tested for antimicrobial activity by susceptibility testing in liquid media. Compounds may be dissolved in dimethylsulfoxide and tested in 10 doubling dilutions in the susceptibility assays. The organisms used in the assay may be grown overnight on suitable agar media and then suspended in a liquid medium appropriate for the growth of the organism. The can be was a 0.5 McFarland and a further 1 in 10 dilution can be made into the same liquid medium to prepare the final organism suspension in 100 pt. Plates can be incubated under appropriate conditions at 37° C. for 24 hrs prior to reading. The Minimum Inhibitory Concentration (MIC) may be determined as the lowest drug concentration able to reduce growth by 80% or more.

[1] = molecular target: GyrB ATPase activity (E. coli GyrA, E. coli GyrB) (Escherichia coli, UniProt P0AES6); assay: GyrB ATPase inhibition activity assay (ammonium molybdate/malachite green phosphate detection); assay type: biochemical; conditions: figure quoted may be an average of two or more results
Protocol: Compounds may be tested for inhibition of GyrB ATPase activity using an ammonium molybdate/malachite green-based phosphate detection assay (Lanzetta, P. A., L. J. Alvarez, P. S. Reinach, and O. A. Candia, 1979, 100: 95-97). Assays can be performed in multiwell plates in 100 μl reactions containing: 50 mM HEPES buffer pH 7.5, 75 mM ammonium acetate, 5.5 mM magnesium chloride, 0.5 mM ethylenediaminetetraacetic acid, 5% glycerol, 1 mM 1,4-Dithio-DL-threitol, 200 nM bovine serum albumin, 5 μg/ml sheared salmon sperm DNA, 2.5 nM E. coli GyrA, 2.5 nM E. coli GyrB, 250 μM ATP, and compound in dimethylsulfoxide. Reactions can be quenched with 150 μl of ammonium molybdate/malachite green detection reagent containing 1.2 mM malachite green hydrochloride, 8.5 mM ammonium molybdate tetrahydrate, and 1 M hydrochloric acid.
Compounds of the Examples could be expected to have IC50 values of <200 μg/ml in one or both assays described herein above. For Example the following results were obtained in a GyrB ATPase inhibition activity assay substantially similar to the above wherein the figure quoted may be an average of two or more results

HIN446 = assay: Bacterial susceptibility testing in liquid media (MIC), HIN446; assay type: cell-based; conditions: strain HIN446
Excerpt: as §1

SAU516 = assay: Bacterial susceptibility testing in liquid media (MIC), SAU516; assay type: cell-based; conditions: strain SAU516
Excerpt: as §1

MCA445 = assay: Bacterial susceptibility testing in liquid media (MIC), MCA445; assay type: cell-based; conditions: strain MCA445
Excerpt: as §1

EFM073 = assay: Bacterial susceptibility testing in liquid media (MIC), EFM073; assay type: cell-based; conditions: strain EFM073
Excerpt: as §1

SMILES	IC50 [1]	also measured
CNC(=O)c1nc(N2CCC(NC(=O)c3[nH]c(C)c(Cl)c3Cl)C3(C2)OCCCO3)sc1C(=O)O (stereo not drawn) [Example 18, 2-(11-{[(3,4-Dichloro-5-methyl-1H-pyrrol-2-yl)carbonyl]amino}-1,5-dioxa-8-azaspiro[5.5]undec-8-yl)-4-[(methylamino)carbonyl]-1,3-thiazole-5-carboxylic acid]	< 0.00977 µM	MIC SPN548 (SPN548): < 0.063 mg/L; MIC HIN446 (HIN446): 0.5 mg/L (≈ 0.939 µM); MIC SAU516 (SAU516): 0.25 mg/L (≈ 0.47 µM); MIC MCA445 (MCA445): < 0.063 mg/L; MIC EFM073 (EFM073): 0.25 mg/L (≈ 0.47 µM)
COCC(COC)NC(=O)c1nc(N2CC[C@@H](NC(=O)c3[nH]c(C)c(Cl)c3Cl)[C@@H](n3cc(CO)nn3)C2)sc1C(=O)O [Example 114]	< 0.00977 µM	
COC(=O)c1cnc(N2CC[C@H](NC(=O)c3[nH]c(C)c(Cl)c3Cl)[C@H](n3cc(C)nn3)C2)s1 (racemic) [Example 121, cis(±)Methyl 2-[4-{[(3,4-dichloro-5-methyl-1H-pyrrol-2-yl)carbonyl]amino}-3-(4-methyl-1H-1,2,3-triazol-1-yl)piperidin-1-yl]-1,3-thiazole-5-carboxylate]	0.0369 µM	
Cc1[nH]c(C(=O)N[C@@H]2CCN(c3ncc(C(=O)O)s3)C[C@@H]2N=[N+]=[N-])c(Cl)c1Cl [Example 102]	< 0.00977 µM	
COCCn1ccnc1-c1nc(N2CCC(NC(=O)c3[nH]c(C)c(Cl)c3Cl)/C(=N/OC)C2)sc1C(=O)OC (stereo not drawn) [Example 36, Methyl 2-[(3E)-4-{[(3,4-dichloro-5-methyl-1H-pyrrol-2-yl)carbonyl]amino}-3-(methoxyimino)piperidin-1-yl]-4-[1-(2-methoxyethyl)-1H-imidazol-2-yl]-1,3-thiazole-5-carboxylate]	0.0755 µM	
Cc1[nH]c(C(=O)N[C@H]2CCN(c3ncc(C(N)=O)s3)C[C@H]2n2ccnc2)c(Cl)c1Cl (racemic) [Example 47, cis(±)2-[4-{[(3,4-Dichloro-5-methyl-1H-pyrrol-2-yl)carbonyl]amino}-3-(1H-imidazol-1-yl)piperidin-1-yl]-1,3-thiazole-5-carboxamide]	0.0257 µM	
COCCNC(=O)c1nc(N2CC[C@@H](NC(=O)c3[nH]c(C)c(Cl)c3Cl)[C@@H](n3cc(CO)nn3)C2)sc1C(=O)O [Example 115]	< 0.00977 µM	
COC(=O)c1cnc(N2CC[C@H](NC(=O)c3[nH]c(C)c(Cl)c3Cl)[C@H](n3ccnc3)C2)s1 (racemic) [Example 38, cis(±)Methyl 2-[4-{[(3,4-dichloro-5-methyl-1H-pyrrol-2-yl)carbonyl]amino}-3-(1H-imidazol-1-yl)piperidin-1-yl]-1,3-thiazole-5-carboxylate]	0.0909 µM	
CCOC(=O)c1sc(N2CCC(NC(=O)c3[nH]c(C)c(Cl)c3Cl)C3(C2)OCCO3)nc1C(=O)NCCOC (stereo not drawn) [Example 5, Ethyl 2-(10-{[(3,4-dichloro-5-methyl-1H-pyrrol-2-yl)carbonyl]amino}-1,4-dioxa-7-azaspiro[4.5]dec-7-yl)-4-{[(2-methoxyethyl)amino]carbonyl}-1,3-thiazole-5-carboxylate]	0.226 µM	
COC(=O)c1sc(N2CCC(NC(=O)c3[nH]c(C)c(Cl)c3Cl)C3(C2)OCCCO3)nc1C(C)=O (stereo not drawn) [Example 9, Methyl 4-acetyl-2-(11-{[(3,4-dichloro-5-methyl-1H-pyrrol-2-yl)carbonyl]amino}-1,5-dioxa-8-azaspiro[5.5]undec-8-yl)-1,3-thiazole-5-carboxylate]	0.0522 µM	
COC(=O)c1cnc(N2CC[C@H](NC(=O)c3[nH]c(C)c(Cl)c3Cl)[C@H](n3ccnn3)C2)s1 (racemic) [Example 126, cis(±)Methyl 2-[4-{[(3,4-dichloro-5-methyl-1H-pyrrol-2-yl)carbonyl]amino}-3-(1H-1,2,3-triazol-1-yl)piperidin-1-yl]-1,3-thiazole-5-carboxylate]	0.0327 µM	
CCOC(=O)c1sc(N2CC[C@H](NC(=O)c3[nH]c(C)c(Cl)c3Cl)[C@H](n3cncn3)C2)nc1C(=O)O (racemic) [Example 49, cis(±)2-[4-{[(3,4-Dichloro-5-methyl-1H-pyrrol-2-yl)carbonyl]amino}-3-(1H-1,2,4-triazol-1-yl)piperidin-1-yl]-5-(ethoxycarbonyl)-1,3-thiazole-4-carboxylic acid]	< 0.00977 µM	
Cc1[nH]c(C(=O)N[C@H]2CCN(c3ncc(C(=O)O)s3)C[C@H]2n2cncn2)c(Cl)c1Cl (racemic) [Example 43, cis(±)2-[4-{[(3,4-Dichloro-5-methyl-1H-pyrrol-2-yl)carbonyl]amino}-3-(1H-1,2,4-triazol-1-yl)piperidin-1-yl]-1,3-thiazole-5-carboxylic acid]	< 0.00977 µM	
CNC(=O)c1nc(N2CCC(NC(=O)c3[nH]c(C)c(Cl)c3Cl)C3(C2)OCCO3)sc1C(=O)OC(C)C (stereo not drawn) [Example 3, Isopropyl 2-(10-{[(3,4-dichloro-5-methyl-1H-pyrrol-2-yl)carbonyl]amino}-1,4-dioxa-7-azaspiro[4.5]dec-7-yl)-4-[(methylamino)carbonyl]-1,3-thiazole-5-carboxylate]	0.27 µM	
Cc1[nH]c(C(=O)N[C@H]2CCN(c3nc4cccc(C(=O)O)c4s3)C[C@H]2n2ccnc2)c(Cl)c1Cl (racemic) [Example 44, cis(±)2-[4-{[(3,4-Dichloro-5-methyl-1H-pyrrol-2-yl)carbonyl]amino}-3-(1H-imidazol-1-yl)piperidin-1-yl]-1,3-benzothiazole-7-carboxylic acid]	< 0.00977 µM	
COCCNC(=O)c1nc(N2CC[C@@H](NC(=O)c3[nH]c(C)c(Cl)c3Cl)[C@@H](n3ccnn3)C2)sc1C(=O)O [Example 100]	< 0.00977 µM	
Cc1[nH]c(C(=O)N[C@H]2CCN(c3ncc(C(=O)O)s3)C[C@H]2N=[N+]=[N-])c(Cl)c1Cl (racemic) [Example 66, cis(±)-2-(3-Azido-4-{[(3,4-dichloro-5-methyl-1H-pyrrol-2-yl)carbonyl]amino}piperidin-1-yl)-1,3-thiazole-5-carboxylic acid]	< 0.00977 µM	
CCOC(=O)c1sc(N2CC[C@H](NC(=O)c3[nH]c(C)c(Cl)c3Cl)[C@H](n3cncn3)C2)nc1C(=O)N[C@@H](C)COC (racemic) [Example 48, cis(±)Ethyl 2-[4-{[(3,4-dichloro-5-methyl-1H-pyrrol-2-yl)carbonyl]amino}-3-(1H-1,2,4-triazol-1-yl)piperidin-1-yl]-4-({[(1S)-2-methoxy-1-methylethyl]amino}carbonyl)-1,3-thiazole-5-carboxylate]	0.0365 µM	
COC(=O)c1cnc(N2CCC(NC(=O)c3[nH]c(C)c(Cl)c3Cl)C(OC)(OC)C2)s1 (stereo not drawn) [Example 10, Methyl 2-(4-{[(3,4-dichloro-5-methyl-1H-pyrrol-2-yl)carbonyl]amino}-3,3-dimethoxypiperidin-1-yl)-1,3-thiazole-5-carboxylate]	0.169 µM	
COCC(COC)NC(=O)c1nc(N2CC[C@@H](NC(=O)c3[nH]c(C)c(Cl)c3Cl)[C@@H](n3cc(CF)nn3)C2)sc1C(=O)O [Example 112]	< 0.00977 µM	
C=CCOC(=O)c1sc(N2CCC(NC(=O)c3[nH]c(C)c(Cl)c3Cl)/C(=N/OC)C2)nc1C(=O)NCCOC (stereo not drawn) [Example 30, Allyl 2-[(3E)-4-{[(3,4-dichloro-5-methyl-1H-pyrrol-2-yl)carbonyl]amino}-3-(methoxyimino)piperidin-1-yl]-4-{[(2-methoxyethyl)amino]carbonyl}-1,3-thiazole-5-carboxylate]	0.0861 µM	
Cc1[nH]c(C(=O)N[C@@H]2CCN(c3nc(C(=O)NC4CC4)c(C(=O)O)s3)C[C@@H]2n2cc(Cl)nn2)c(Cl)c1Cl [Example 110]	< 0.00977 µM	
CONC(=O)c1cccc2nc(N3CC[C@H](NC(=O)c4[nH]c(C)c(Cl)c4Cl)[C@H](n4ccnc4)C3)sc12 (racemic) [Example 46, cis(±)2-[4-{[(3,4-Dichloro-5-methyl-1H-pyrrol-2-yl)carbonyl]amino}-3-(1H-imidazol-1-yl)piperidin-1-yl]-N-methoxy-1,3-benzothiazole-7-carboxamide]	< 0.00977 µM	
Cc1[nH]c(C(=O)N[C@@H]2CCN(c3nc4cccc(C(=O)O)c4s3)C[C@@H]2n2ccnn2)c(Cl)c1Cl [Example 124, 2-[(3S,4R)-4-{[(3,4-Dichloro-5-methyl-1H-pyrrol-2-yl)carbonyl]amino}-3-(1H-1,2,3-triazol-1-yl)piperidin-1-yl]-1,3-benzothiazole-7-carboxylic acid]	< 0.00977 µM	
CO/N=C1\CN(c2ncc(C=O)s2)CCC1NC(=O)c1[nH]c(C)c(Cl)c1Cl (stereo not drawn) [Example 32, 3,4-Dichloro-N-[(3E)-1-(5-formyl-1,3-thiazol-2-yl)-3-(methoxyimino)piperidin-4-yl]-5-methyl-1H-pyrrole-2-carboxamide]	0.0593 µM	
